The source of these data is patent US11091471B2, “Isoxazolyl ether derivatives as GABAA α5 PAM” (Hoffmann-La Roche Inc., priority 2016, dated 2021).

The assay addresses h-GABA-A α5β3γ2 (Homo sapiens (Human), UniProt P18507+P31644). Kind of assay: Two-electrode voltage clamp electrophysiology in Xenopus oocytes expressing GABAA receptors, modulation of GABA EC20 current. Format: cell-based. The procedure:
Xenopus laevis oocytes at maturation stages V-VI were used for the expression of cloned mRNA encoding GABAA receptor subunits. Oocytes ready for RNA micro-injection were bought from Ecocyte, Castrop-Rauxel, Germany and stored in modified Barth's medium (composition in mM: NaCl 88, KCl 1, NaHCO3 2.4, HEPES 10, MgSO4 0.82, CaNO3 0.33, CaCl2 0.33, pH=7.5) at 20° C. until the experiment.
Oocytes were plated in 96-well plates to be used in an automated instrument (Robo-ocyte, MultiChannelSystems, Reutlingen, Germany) for microinjection and electrophysiological recordings. Approximately 50 nl of an aqueous solution containing the RNA transcripts for the subunits of the desired GABAA receptor was injected into each oocyte.
Electrophysiological experiments were performed on days 3 to 5 after the micro-injection of mRNA. During the experiment the oocytes were constantly superfused by a solution containing (in mM) NaCl 90, KCl 1, HEPES 5, MgCl2 1, CaCl2 1 (pH 7.4). Oocytes were impaled by two glass microelectrodes (resistance: 0.4 MΩ) which were filled with a solution containing KCl 1M+K-acetate 1.5 M and voltage-clamped to −80 mV. The recordings were performed at room temperature using the Roboocyte two-electrode voltage clamp system (Multichannelsystem). After an initial equilibration period of 1.5 min GABA was added for 1.5 min at a concentration evoking approximately 20% of a maximal current response (EC20). After another rest interval of 2.5 min GABA was again added evoking a response of similar amplitude and shape. […] Current traces were recorded at a digitization rate of 10 Hz during and shortly before and after the GABA application.
Each compound and concentration was tested on at least 3 oocytes.
For the analysis, the digitized current traces of the first and second GABA response were superimposed and, if necessary, rescaled to equal maximal amplitudes. The ratio between the two responses during the time interval of test compound application was calculated point by point. The extremum of the resulting “ratio trace” was taken as the efficacy (“Fold increase”) of the compound expressed as “% modulation of GABA EC20” (100*(Fold increase−1)).
For orientation: In two-electrode clamp one electrode senses voltage and the other passes current.

The mark [1] stands for this setting: Table 2, reference compounds, % modulation of GABA EC20.
Setting [2] is: Table 2, reference compounds, GABAA α5β3γ2 overexpressing oocytes.
The mark [3] stands for this setting: Table 1, GABA at EC20, test compound at approx. 30 fold its Ki, Xenopus oocytes.

The structures appear in SMILES notation.

h-GABA-A α5β3γ2, sequence (P31644 32-462): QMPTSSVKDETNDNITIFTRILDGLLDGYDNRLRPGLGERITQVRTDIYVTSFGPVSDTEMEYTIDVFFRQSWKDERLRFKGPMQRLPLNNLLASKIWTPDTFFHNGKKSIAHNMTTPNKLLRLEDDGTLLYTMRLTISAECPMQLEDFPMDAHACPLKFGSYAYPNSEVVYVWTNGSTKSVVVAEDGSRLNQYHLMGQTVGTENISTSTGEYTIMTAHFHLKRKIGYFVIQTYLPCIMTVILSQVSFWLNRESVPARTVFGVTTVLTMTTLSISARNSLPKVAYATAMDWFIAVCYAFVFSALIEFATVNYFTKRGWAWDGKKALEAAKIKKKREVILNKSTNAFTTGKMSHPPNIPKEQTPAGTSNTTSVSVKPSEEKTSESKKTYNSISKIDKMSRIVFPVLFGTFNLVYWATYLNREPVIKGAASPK
h-GABA-A α5β3γ2, sequence (P28472 26-473 partner): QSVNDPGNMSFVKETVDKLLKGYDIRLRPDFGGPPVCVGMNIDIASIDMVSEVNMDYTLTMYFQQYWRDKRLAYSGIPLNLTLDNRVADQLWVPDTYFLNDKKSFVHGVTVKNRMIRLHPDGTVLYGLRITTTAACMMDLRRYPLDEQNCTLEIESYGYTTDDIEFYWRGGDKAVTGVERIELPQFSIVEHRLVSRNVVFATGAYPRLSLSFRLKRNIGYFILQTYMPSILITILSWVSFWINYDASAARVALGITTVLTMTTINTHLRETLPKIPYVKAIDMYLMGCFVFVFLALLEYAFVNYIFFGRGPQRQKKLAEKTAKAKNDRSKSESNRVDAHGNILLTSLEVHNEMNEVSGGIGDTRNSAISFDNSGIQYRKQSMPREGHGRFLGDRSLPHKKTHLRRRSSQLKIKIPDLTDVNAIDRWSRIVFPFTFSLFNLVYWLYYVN
h-GABA-A α5β3γ2, sequence (P18507 40-475): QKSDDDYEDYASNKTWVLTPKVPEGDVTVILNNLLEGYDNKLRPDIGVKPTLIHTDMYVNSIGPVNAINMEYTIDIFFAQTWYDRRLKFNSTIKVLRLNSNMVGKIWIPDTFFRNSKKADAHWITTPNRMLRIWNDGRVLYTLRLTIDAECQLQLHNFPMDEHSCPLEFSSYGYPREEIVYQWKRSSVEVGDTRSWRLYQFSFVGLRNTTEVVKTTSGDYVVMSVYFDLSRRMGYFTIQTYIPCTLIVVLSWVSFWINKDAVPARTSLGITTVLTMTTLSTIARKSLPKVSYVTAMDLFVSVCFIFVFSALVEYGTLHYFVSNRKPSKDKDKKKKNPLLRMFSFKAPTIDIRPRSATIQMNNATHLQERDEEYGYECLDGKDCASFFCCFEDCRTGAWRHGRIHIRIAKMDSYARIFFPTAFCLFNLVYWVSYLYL

`Cc1onc(-c2ccccn2)c1COc1ccc(C(=O)NC2CCOCC2)cn1` [RO-272, reference compound]: the “Efficacy (GABA) %” value under setting [1] was −32%. The “Fold increase h-GABA-A α5β3γ2 oocyte” value under setting [2] turned out to be 0.68.

Regarding `Cc1ccc(-c2noc(C)c2COc2ccc(C(=O)N[C@H]3CCOC[C@@H]3O)cn2)cn1` [Example 127, N-((3R,4S)-3-hydroxytetrahydropyran-4-yl)-6-((5-methyl-3-(6-methyl-3-pyridyl)isoxazol-4-yl)methoxy)pyridine-3-carboxamide], the “Fold increase h-GABA-A α5β3γ2 oocyte” value under setting [3] was determined as 1.5.

Turning to `CCC[C@@H](CO)NC(=O)c1ccc(OCc2c(-c3ccc(C)nc3)noc2C)nc1` [Example 4, (S)—N-(1-hydroxypentan-2-yl)-6-((5-methyl-3-(6-methylpyridin-3-yl)isoxazol-4-yl)methoxy)nicotinamide], the “Fold increase h-GABA-A α5β3γ2 oocyte” value under setting [3] stood at 2.5. For the compound `Cc1onc(-c2ccc(Cl)cn2)c1COc1ccc(C(=O)NC2CCOCC2)nn1` [RE-B, 6-((3-(5-chloro-2-pyridyl)-5-methyl-isoxazol-4-yl)methoxy)-N-tetrahydropyran-4-yl-pyridazine-3-carboxamide, reference compound], under setting [1], the “Efficacy (GABA) %” value was “+3%”. Take `Cc1ccc(-c2noc(C)c2COc2ccc(C(=O)N[C@H]3C[C@H](OCC(F)F)C3)nn2)cn1` [Example 170, trans-N-3-((2,2-difluoroethoxy)cyclobutyl)-6-((5-methyl-3-(6-methylpyridin-3-yl)isoxazol-4-yl)methoxy)pyridazine-3-carboxamide]: the “Fold increase h-GABA-A α5β3γ2 oocyte” value under setting [3] is reported as 1.6. With `CCC[C@@H](CO)NC(=O)c1cnc(OCc2c(-c3ccc(C)nc3)noc2C)cn1` [Example 14, N-((1S)-1-(hydroxymethyl)butyl)-5-((5-methyl-3-(6-methyl-3-pyridyl)isoxazol-4-yl)methoxy)pyrazine-2-carboxamide], the “Fold increase h-GABA-A α5β3γ2 oocyte” value under setting [3] came out at 2.6. Regarding `Cc1ncc2n1-c1ccc(Cl)cc1C(c1ccccc1F)=NC2` [Midazolam, reference compound], the “potentiation of the GABA-induced current” value (positive control (PAM) at a maximally effective concentration) is recorded as around 150%. Also, where the note is “positive control at a maximally effective concentration, 3-6 oocytes per 96-well plate”, the Fold increase is on record as around 2.5.

As for `Cc1ccc(-c2noc(C)c2COc2ccc(C(=O)N[C@H]3CCOC3)nn2)cn1` [Example 87, (S)-6-((5-methyl-3-(6-methylpyridin-3-yl)isoxazol-4-yl)methoxy)-N-(tetrahydrofuran-3-yl)pyridazine-3-carboxamide], the “Fold increase h-GABA-A α5β3γ2 oocyte” value under setting [3] came to 1.8. For `CCc1onc(-c2ccc(C)nc2)c1COc1ccc(C(=O)NC2CCS(=O)(=O)CC2)cn1` [Example 120, N-(1,1-dioxidotetrahydro-2H-thiopyran-4-yl)-6-((5-ethyl-3-(6-methylpyridin-3-yl)isoxazol-4-yl)methoxy)pyridine-3-carboxamide], the “Fold increase h-GABA-A α5β3γ2 oocyte” value under setting [3] came to 2.6. Turning to `Cc1ccc(-c2noc(C)c2COc2ccc(C(N)=O)cn2)cn1` [Example 17, 6-((5-methyl-3-(6-methylpyridin-3-yl)isoxazol-4-yl)methoxy)nicotinamide], the “Fold increase h-GABA-A α5β3γ2 oocyte” value under setting [3] is reported as 1.6. As for `Cc1onc(-c2ccc(Cl)cn2)c1COc1ccc(C(=O)NC2CCOCC2)cn1` [RO-301, reference compound], the “Efficacy (GABA) %” value under setting [1] is on record as −18%. Besides, under setting [2], the “Fold increase h-GABA-A α5β3γ2 oocyte” value came to 0.82. With `Cc1ccc(-c2noc(C)c2COc2cc3c(cn2)C(=O)N(C2CCS(=O)(=O)CC2)C3)cn1` [Example 91, 2-(1,1-dioxothian-4-yl)-6-((5-methyl-3-(6-methylpyridin-3-yl)-1,2-oxazol-4-yl)methoxy)-1H-pyrrolo[3,4-c]pyridin-3-one], the “Fold increase h-GABA-A α5β3γ2 oocyte” value under setting [3] is recorded as 2.4. With `Cc1onc(-c2ccccn2)c1COc1ccc(C(=O)NC2CCOCC2)nn1` [RO-094, reference compound], under setting [1], the “Efficacy (GABA) %” value is listed as −18%. In addition, the “Fold increase h-GABA-A α5β3γ2 oocyte” value under setting [2] worked out at 0.82.

Consider `Cc1ccc(-c2noc(C)c2COc2ccc(C(=O)NC3CC4(COC4)C3)nn2)cn1` [Example 100, 6-((5-methyl-3-(6-methylpyridin-3-yl)isoxazol-4-yl)methoxy)-N-(2-oxaspiro[3.3]heptan-6-yl)pyridazine-3-carboxamide], for which the “Fold increase h-GABA-A α5β3γ2 oocyte” value under setting [3] came out at 1.7. As to `Cc1ccc(-c2noc(C)c2COc2cnc(C(=O)NC3CCS(=O)(=O)CC3)cn2)cn1` [Example 72, N-(1,1-dioxothian-4-yl)-5-((5-methyl-3-(6-methyl-3-pyridyl)isoxazol-4-yl)methoxy)pyrazine-2-carboxamide], under setting [3], the “Fold increase h-GABA-A α5β3γ2 oocyte” value was found to be 2.3. Take `Cc1ccc(-c2noc(C)c2COc2ccc(C(=O)N3CCC(F)(F)CC3)nn2)cn1` [Example 53, (4,4-difluoropiperidin-1-yl)(6-((5-methyl-3-(6-methylpyridin-3-yl)isoxazol-4-yl)methoxy)pyridazin-3-yl)methanone]: the “Fold increase h-GABA-A α5β3γ2 oocyte” value under setting [3] was 1.8.

Take `Cc1onc(-c2cccnc2)c1COc1ccc(C(=O)NC2CCOCC2)cn1` [RO-159, reference compound]: the “Efficacy (GABA) %” value under setting [1] is −12%. Further, the “Fold increase h-GABA-A α5β3γ2 oocyte” value under setting [2] is recorded as 0.88. For the compound `Cc1ccc(-c2noc(C)c2COc2ccc(C(=O)N3C4COCC3C4)nn2)cn1` [Example 157, 3-oxa-6-azabicyclo[3.1.1]heptan-6-yl(6-((5-methyl-3-(6-methylpyridin-3-yl)isoxazol-4-yl)methoxy)pyridazin-3-yl)methanone], the “Efficacy (GABA) %” value (Table 1, % modulation of GABA EC20 = 100*(Fold increase−1)) was 76%. For `Cc1ccc(-c2noc(C)c2COc2ccc(C(=O)N[C@@H]3CC[C@@H](OCC(F)F)C3)nn2)cn1` [Example 191, N-((1R,3R)-3-(2,2-difluoroethoxy)cyclopentyl)-6-((5-methyl-3-(6-methylpyridin-3-yl)isoxazol-4-yl)methoxy)pyridazine-3-carboxamide], the “Fold increase h-GABA-A α5β3γ2 oocyte” value under setting [3] is on record as 1.6.

As for `Cc1ccc(-c2noc(C)c2COc2ccc(C(=O)NCC3(C)COC3)nn2)cn1` [Example 49, 6-((5-methyl-3-(6-methylpyridin-3-yl)isoxazol-4-yl)methoxy)-N-((3-methyloxetan-3-yl)methyl)pyridazine-3-carboxamide], the “Fold increase h-GABA-A α5β3γ2 oocyte” value under setting [3] was determined as 1.7.

As for `Cc1ccc(-c2noc(C)c2COc2ccc(C(=O)NC3CC3)nn2)cn1` [Example 26, N-cyclopropyl-6-((5-methyl-3-(6-methylpyridin-3-yl)isoxazol-4-yl)methoxy)pyridazine-3-carboxamide], the “Fold increase h-GABA-A α5β3γ2 oocyte” value under setting [3] is given as 1.8. Turning to `Cc1onc(-c2ccc(Cl)nc2)c1COc1ccc(C(=O)NC2(C)COC2)nn1` [Example 161, 6-((3-(6-chloropyridin-3-yl)-5-methylisoxazol-4-yl)methoxy)-N-(3-methyloxetan-3-yl)pyridazine-3-carboxamide], the “Fold increase h-GABA-A α5β3γ2 oocyte” value under setting [3] stood at 1.6.

`Cc1onc(-c2cccnc2)c1COc1ccc(C(=O)NC2CCOCC2)nn1` [RE-A, 6-((5-methyl-3-(3-pyridyl)isoxazol-4-yl)methoxy)-N-tetrahydropyran-4-yl-pyridazine-3-carboxamide, reference compound]: under setting [1], the “Efficacy (GABA) %” value was −3%. Moreover, the “Fold increase h-GABA-A α5β3γ2 oocyte” value under setting [2] was determined as 0.97. As for `Cc1ccc(-c2noc(C)c2COc2cc3c(cn2)C(=O)N(C)C3)cn1` [Example 10, 2-methyl-6-((5-methyl-3-(6-methylpyridin-3-yl)isoxazol-4-yl)methoxy)-1H-pyrrolo[3,4-c]pyridin-3(2H)-one], the “Fold increase h-GABA-A α5β3γ2 oocyte” value under setting [3] is 1.8.
